Patent US20260007634A1, “PHARMACEUTICAL COMPOSITIONS FOR THE TREATMENT OF ALLERGIC DISEASES” (KINKI UNIVERSITY, priority 2022, published 2026)

Columns and labels:
Format in all cases: in vivo, mouse
IL-5 [1] = test: Serum IL-5 ELISA, food allergy mice; settings: OVA food allergy; serum day 28; oral 10 mg/kg (dexamethasone 2 mg/kg); control 135, vehicle 916
Experimental: A 0.2 mL dose of 10 μg ovalbumin (OVA) and 1 mg Alum mixture was administered to 6-week-old female Balb/c mice (Japan SLC Inc.) (day 0 of the example). Alum was used as an adjuvant. Seven days later, the Balb/c mice were immunized again with a 0.2 mL injection of the above mixture. Starting on day 14, mice were orally treated with 10 mg/kg of norathyriol, 10 mg/kg of mangiferin 8a, 10 mg/kg of tofacitinib (JAK inhibitor), 2 mg/kg of dexamethasone (steroid) and 10 mg/kg of olopatadine (antihistamine) daily for 14 consecutive days. […]
Serum was collected from day 28 mice in Examples 21, and IL-5 production was measured by enzyme-linked immunosorbent assay (ELISA). This assay was performed using a mouse IL-5 ELISA kit (R&D).

BAFF = test: Serum BAFF ELISA, allergic rhinitis mice; settings: OVA allergic rhinitis; serum day 28; oral 10 mg/kg (dexamethasone 2 mg/kg); control 157, vehicle 1450
Experimental: (§1) A 0.2 mL dose of 50 μg ovalbumin (OVA) and 2 mg Alum mixture was administered to 6-week-old female Balb/c mice (Japan SLC Inc.) (day 0 of the example). Alum was used as an adjuvant. Seven days later and 14 days later, the Balb/c mice were immunized again with 0.2 mL injections of the above mixture. Starting on day 20, mice were orally treated with 10 mg/kg of norathyriol, 10 mg/kg of mangiferin 8a, 10 mg/kg of tofacitinib (JAK inhibitor), 2 mg/kg of dexamethasone (steroid) and 10 mg/kg of olopatadine (antihistamine) daily for 8 consecutive days. Starting on day 21, 400 μg OVA was administered intranasally, and nose-scratching behavior was measured on day 27. Note that tofacitinib, dexamethasone, and olopatadine are currently in clinical use in allergic rhinitis and were used as control drugs in this example.
Serum was collected from day 28 mice in Examples 6 and 7, and BAFF production was measured by enzyme-linked immunosorbent assay (ELISA). This assay was performed using a mouse BAFF ELISA kit (R&D).

IL-5 [2] = test: Serum IL-5 ELISA, allergic rhinitis mice; settings: OVA allergic rhinitis; serum day 28; oral 10 mg/kg (dexamethasone 2 mg/kg); control 151, vehicle 1010
Experimental: as §1
Serum was collected from day 28 mice in Examples 6 and 7, and IL-5 production was measured by enzyme-linked immunosorbent assay (ELISA). This assay was performed using a mouse IL-5 ELISA kit (R&D).

OVA-IgE antibody = test: Serum OVA-IgE antibody ELISA, bronchial asthma mice; settings: serum day 28, oral 10 mg/kg (dexamethasone 2 mg/kg), control 2.4, vehicle 66
Experimental: as §1, with “cough” for “nose-scratching behavior”
Serum was collected from day 28 mice in Examples 14, and OVA-IgE antibody production was measured by enzyme-linked immunosorbent assay (ELISA). This assay was performed using a mouse OVA-IgE antibody ELISAkit (FUJIFILM Wako).

[3] = tested on: Balb/c mice with ovalbumin-induced allergic rhinitis; test: Nose scratching behavior, ovalbumin-induced allergic rhinitis mice; settings: OVA allergic rhinitis; oral daily 8 days from day 20, 10 mg/kg (dexamethasone 2 mg/kg); measured day 27; vs vehicle group
Experimental: as §1
The group that was just immunized with OVA is called the subject group, the one that received norathyriol is called the norathyriol group, the one that received mangiferin 8a is called the mangiferin 8a group, the one that received tofacitinib is called the tofacitinib group, the one that received dexamethasone is called the dexamethasone group, and the one that received olopatadine is called the olopatadine group. Each group consisted of five animals.

[4] = tested on: Balb/c mice with cedar pollinosis; test: Sneezing, cedar pollinosis model mice; settings: oral daily 8 days from day 20, 10 mg/kg (dexamethasone 2 mg/kg), measured day 27, vs vehicle group
Experimental: A 0.2 mL dose of 100 μg cedar pollen and 1 mg Alum mixture was administered to 6-week-old female Balb/c mice (Japan SLC Inc.) (day 0 of the example). Alum was used as an adjuvant. Seven days later and 14 days later, the Balb/c mice were immunized again with 0.2 mL injections of the above mixture. Starting on day 20, mice were orally treated with 10 mg/kg of norathyriol, 10 mg/kg of mangiferin 8a, 10 mg/kg of tofacitinib (JAK inhibitor), 2 mg/kg of dexamethasone (steroid) and 10 mg/kg of olopatadine (antihistamine) daily for 8 consecutive days. Starting on day 21, 500 μg cedar pollen was administered intranasally, and sneezing was measured on day 27. Note that tofacitinib, dexamethasone, and olopatadine are currently in clinical use in cedar pollinosis and were used as control drugs in this example.
The group that was just immunized with cedar pollen is called the subject group, the one that received norathyriol is called the norathyriol group, the one that received mangiferin 8a is called the mangiferin 8a group, the one that received tofacitinib is called the tofacitinib group, the one that received dexamethasone is called the dexamethasone group, and the one that received olopatadine is called the olopatadine group. Each group consisted of five animals.

Compound	amount of IL-5 (IL-5 [1])	amount of BAFF (BAFF)	amount of IL-5 (IL-5 [2])	amount of OVA-IgE antibody (OVA-IgE antibody)	number of nose scratches [3]	number of sneezing [4]
C[C@@H]1C[C@H]2[C@@H]3CCC4=CC(=O)C=C[C@]4(C)[C@@]3(F)[C@@H](O)C[C@]2(C)[C@@]1(O)C(=O)CO [dexamethasone]	249 pg/mL	266 pg/mL	314 pg/mL	18 U/mL		
O=c1c2cc(O)c(O)cc2oc2cc(O)cc(O)c12 [norathyriol, 1,3,6,7-tetrahydroxyxanthone]	475 pg/mL	629 pg/mL	633 pg/mL	28 U/mL	significantly decreased the number of nose scratches	significantly decreased the number of sneezing
CN(C)CC/C=C1/c2ccccc2COc2ccc(CC(=O)O)cc21 [olopatadine]	832 pg/mL	1691 pg/mL	880 pg/mL	69 U/mL	significantly decreased the number of nose scratches	significantly decreased the number of sneezing
C[C@@H]1CCN(C(=O)CC#N)C[C@@H]1N(C)c1ncnc2[nH]ccc12 [tofacitinib]	791 pg/mL	1041 pg/mL	839 pg/mL	50 U/mL	significantly decreased the number of nose scratches	significantly decreased the number of sneezing
